Results: US4966889A, “Treatment of inflammatory articular diseases” (Industria Farmaceutica Serono SpA, priority 1986, dated 1990)
“Also recorded” adds a separate entry of the source.

Key:
[1] = test system: patients affected by polyarticular RA; experiment: Evaluation of efficacy of therapies in course prior to treatment; type: in vivo, human; set-up: key to Efficacy of present therapy: Nil; Scarce; Good; Excellent; conditions: single cases
Excerpt: (§1) With reference to each of the clinical cases taken into consideration, supplied below are the particulars relevant to diagnosis, evaluation of efficacy of therapies in course prior to treatment (Nil, Scarce, Good, Excellent), and finally the clinical observations after treatment with Somatostatin (SS) or with Placebo (PL).

[2] = test system: patients affected by polyarticular RA (knee joint); experiment: Double-blind trial versus placebo: clinical observations and side effects; type: in vivo, human; conditions: at the moment of administration or in the following days; 750 micrograms into knee joint
Procedure: Clinical efficacy of Somatostatin was verified by means of a double-blind trial versus placebo.
17 patients affected by polyarticular RA were selected for the trial. Each patient was informed about the experimental nature of the treatment. The articular site chosen for the study was the knee.
In accordance with the double-blind procedure (Somatostatin versus placebo), 10 patients were treated with Somatostatin ("STILAMIN", 750 micrograms) injected inside the knee joint.
Clinical observations were carried out at time 0, each 10 minutes of the first hour, than at hourly intervals for 3 hours. A further evaluation was made after one week; during the period between the treatment and the evaluation on the seventh day, the patients filled out a table for selfevaluation. Parameters chosen were Ritchie's Index and Huskisson's Scale of Pain, evaluation of pain being made when walking, upon flexion and supine.
as §1

[3] = single drug in course prior to treatment
[4] = Piroxicam 20 mg together with 6-alpha-methylprednisolone (8 mg or 4 mg)

## O=C(O)Cc1ccccc1Nc1c(Cl)cccc1Cl [Diclofenac]
[1]; [3]
  Efficacy of present therapy: Scarce

## CCN(CCO)CCCC(C)Nc1ccnc2cc(Cl)ccc12 (centres unmarked) [Hydroxychloroquine]
[1]; before the trial
  results of basic therapy (case history): scarce results; also recorded: Disease still in acute phase

## CN1C(C(=O)Nc2ccccn2)=C(O)c2ccccc2S1(=O)=O [Piroxicam]
[1]; [4]
  Efficacy of present therapy: Scarce
[1]; [3]
  Efficacy of present therapy: Scarce

## CC(C(=O)O)c1ccc(C(=O)c2ccccc2)s1 (centres unmarked) [Thiaprophenic Acid]
[1]; [3]
  Efficacy of present therapy: Nil and Scarce

## COc1ccc2cc([C@H](C)C(=O)O)ccc2c1 [Naproxen]
[1]; [3]
  Efficacy of present therapy: Good
[1]; single drug in course prior to treatment, listed as Naproxene
  Efficacy of present therapy: Good and Scarce

## CC(C(=O)O)c1cccc(C(=O)c2ccccc2)c1 (centres unmarked) [Ketoprofene]
[1]; [3]
  Efficacy of present therapy: Nil

## C[C@H]1C[C@@H]2[C@H]([C@@H](O)C[C@@]3(C)[C@H]2CC[C@]3(O)C(=O)CO)[C@@]2(C)C=CC(=O)C=C12 [6-alpha-methylprednisolone]
[1]; [4]
  Efficacy of present therapy: Scarce
[1]; [3]
  Efficacy of present therapy: Scarce

## C[C@H](N)C(=O)NCC(=O)N[C@H]1CSSC[C@@H](C(=O)O)NC(=O)[C@H](CO)NC(=O)[C@H]([C@@H](C)O)NC(=O)[C@H](Cc2ccccc2)NC(=O)[C@H]([C@@H](C)O)NC(=O)[C@H](CCCCN)NC(=O)[C@H](Cc2c[nH]c3ccccc23)NC(=O)[C@H](Cc2ccccc2)NC(=O)[C@H](Cc2ccccc2)NC(=O)[C@H](CC(N)=O)NC(=O)[C@H](CCCCN)NC1=O [Somatostatin]
[2]
  clinical side effects: No verifiable clinical side effects
